Assay results as given in ChEMBL document CHEMBL5154907, “Discovery and Anti-Inflammatory Activity Evaluation of a Novel CDK8 Inhibitor through Upregulation of IL-10 for the Treatment of Inflammatory Bowel Disease In Vivo” (J Med Chem, 2022).

How the values were obtained:
[1] = target: CDK8/Cyclin C (Homo sapiens) (UniProt P49336+P24863); test: Inhibition of recombinant full length His tagged human CDK8/Cyclin C expressed in Baculovirus at 200 nM incubated for 60 mins in presence of ATP by ADP-Glo kinase assay
CDK8/Cyclin C = CDK8/Cyclin C (Homo sapiens, UniProt P49336); test: Inhibition of recombinant full length His tagged human CDK8/Cyclin C expressed in Baculovirus incubated for 60 mins in presence of ATP by ADP-Glo kinase assay
Chain of CDK8/Cyclin C (P49336 whole entry): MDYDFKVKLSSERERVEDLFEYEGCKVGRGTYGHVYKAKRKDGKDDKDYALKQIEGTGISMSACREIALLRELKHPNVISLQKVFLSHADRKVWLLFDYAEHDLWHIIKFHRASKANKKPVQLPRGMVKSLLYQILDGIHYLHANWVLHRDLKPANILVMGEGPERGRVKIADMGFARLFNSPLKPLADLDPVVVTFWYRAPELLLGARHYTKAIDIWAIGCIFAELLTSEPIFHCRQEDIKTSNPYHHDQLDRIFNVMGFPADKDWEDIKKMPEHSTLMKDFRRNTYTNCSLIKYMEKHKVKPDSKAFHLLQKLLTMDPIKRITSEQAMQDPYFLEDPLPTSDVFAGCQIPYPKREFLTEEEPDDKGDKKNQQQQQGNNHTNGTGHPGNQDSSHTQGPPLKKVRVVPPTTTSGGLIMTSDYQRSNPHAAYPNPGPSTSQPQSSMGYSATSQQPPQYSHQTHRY
Chain of CDK8/Cyclin C (P24863 whole entry, further chain): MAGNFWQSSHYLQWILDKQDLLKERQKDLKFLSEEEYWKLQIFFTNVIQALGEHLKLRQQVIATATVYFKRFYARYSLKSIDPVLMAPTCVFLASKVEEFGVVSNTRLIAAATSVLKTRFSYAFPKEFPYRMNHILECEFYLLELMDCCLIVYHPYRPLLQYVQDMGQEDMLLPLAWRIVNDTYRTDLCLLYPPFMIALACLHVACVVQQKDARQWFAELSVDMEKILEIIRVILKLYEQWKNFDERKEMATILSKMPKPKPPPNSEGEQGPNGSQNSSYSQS

[2] = Transcriptional activity of AP-1 in R848-stimulated mouse BMDC cells transfected with pAP1-luc assessed as ratio of AP-1 activity at 5 uM treated for 24 hrs followed by R848 stimulation for 4 hrs by luminescence based microplate reader analysis relative to control; assay type: functional; conditions: time 28 hrs
BMDC = test: Anti-inflammatory activity against R848-stimulated mouse BMDC cells assessed as upregulation of IL-10 production at 5 uM treated for 24 hrs followed by R848 stimulation for 12 hrs by ELISA method (reference value: 100 %); assay type: functional; conditions: time 36 hrs
[3] = Stability of compound in human liver microsome assessed as intrinsic clearance by HPLC analysis; assay type: ADME; conditions: liver microsomes, read-out: CLH

Row | Structure (SMILES) | inhibition [1] [%] | IC50 (CDK8/Cyclin C) [nM] | Ratio [2] | Activity (BMDC) [%] | microsomal CLint [3] [µL/min/mg]
1 | Nc1ccccc1NC(=O)c1cncc(-c2ccc(C(=O)N3CCNCC3)cc2)c1 | 27 | 947 | 1.63 | 24 | –
2 | O=C(Nc1cccc(C(F)(F)F)c1)c1cncc(-c2ccc(C(=O)N3CCNCC3)cc2)c1 | 24 | 1140 | 1.41 | 42 | –
3 | COc1cccc(NC(=O)c2cncc(-c3ccc(C(=O)N4CCNCC4)cc3)c2)c1 | 80 | 65 | 2 | 65 | 7
4 | Cc1ccccc1NC(=O)c1cncc(-c2ccc(C(=O)N3CCNCC3)cc2)c1 | 81 | 70 | 1.5 | 70 | 13
5 | Nc1ncc(C(=O)Nc2ccccc2)cc1-c1ccc(C(=O)N2CCNCC2)cc1 | 44 | 260 | 1.7 | 56 | –
6 | O=C(Nc1ccccc1)c1cc(O)cc(-c2ccc(C(=O)N3CCNCC3)cc2)c1 | 30 | 530 | 1.3 | 82 | 9.5
7 | O=c1cc(-c2ccccc2)oc2cc(-c3ccc(CN4CCNCC4)cc3)cc(O)c12 | 69 | 144 | 1.9 | 33 | 15.9
8 | O=C(Nc1ccccc1)c1cc(-c2ccc(C(=O)N3CCNCC3)cc2)ccc1O | 54 | 210 | 1.2 | 40 | –
9 | O=C(Nc1ccccc1)c1cc(-c2ccc(C(=O)N3CCNCC3)cc2)ccn1 | 78 | 87 | 2.3 | 72 | 10.4
10 | CCc1cccc(NC(=O)c2cncc(-c3ccc(C(=O)N4CCNCC4)cc3)c2)c1 | 73 | 104 | 1.7 | 34 | –
11 | O=C(Nc1ccccc1)c1ccnc(-c2ccc(C(=O)N3CCNCC3)cc2)c1 | 65 | 80 | 2.4 | 29 | 10.9
12 | O=c1cc(-c2ccccc2)oc2cc(-c3ccccc3)cc(O)c12 | 46 | 234 | 1.5 | – | 10.9
13 | Nc1ncc(-c2ccc(C(=O)N3CCNCC3)cc2)cc1C(=O)Nc1ccccc1 | 62 | 134 | 2.7 | 61 | –
14 | O=C(Nc1ccccc1)c1cncc(-c2ccc(C(=O)N3CCNCC3)cc2)c1 | 79 | 80 | 2.8 | 76 | 7.3
15 | O=C(c1ccc(-c2cc(O)c3c(=O)cc(-c4ccccc4)oc3c2)cc1)N1CCNCC1 | 75 | 72 | 2.4 | 43 | 12.9
16 | Cc1cccc(NC(=O)c2cncc(-c3ccc(C(=O)N4CCNCC4)cc3)c2)c1 | 76 | 75 | 1.6 | 62 | –
17 | O=C(Nc1ccc(Cl)cc1)c1cncc(-c2ccc(C(=O)N3CCNCC3)cc2)c1 | 20 | 1470 | 1.55 | 33 | –
18 | COc1c(O)cc(O)c2c(=O)cc(-c3ccccc3)oc12 [WOGONIN] | – | 5900 | 1.4 | 65 | 11.3
19 | Nc1ccc(-c2cc(O)c3c(=O)cc(-c4ccccc4)oc3c2)cc1 | 64 | 112 | 2.6 | 21 | –
20 | O=C(Nc1ccccc1)c1ccc(O)c(-c2ccc(C(=O)N3CCNCC3)cc2)c1 | 57 | 214 | 1.2 | 26 | –
21 | CCc1ccc(NC(=O)c2cncc(-c3ccc(C(=O)N4CCNCC4)cc3)c2)cc1 | 71 | 96 | 1.9 | 40 | –
22 | O=c1cc(-c2ccccc2)oc2cc(-c3ccc(N4CCNCC4)cc3)cc(O)c12 | 53 | 190 | 1.5 | 80 | 13.7
23 | Nc1ccc(NC(=O)c2cncc(-c3ccc(C(=O)N4CCNCC4)cc3)c2)cc1 | 34 | 3650 | 1.72 | 30 | –
24 | CC(=O)Nc1ccc(NC(=O)c2cncc(-c3ccc(C(=O)N4CCNCC4)cc3)c2)cc1 | 35 | 1050 | 1.1 | 37 | –
25 | COc1ccc(NC(=O)c2cncc(-c3ccc(C(=O)N4CCNCC4)cc3)c2)cc1 | 77 | 81 | 1.7 | 74 | –
